Data taken from US20160235727A1, “NOVEL PYRROLIDINE DERIVED BETA 3 ADRENERGIC RECEPTOR AGONISTS” (Merck Sharp & Dohme Corp., priority 2013, published 2016).

Target: T1, human β3-AR (Homo sapiens, UniProt P13945)
T1 construct: expressed in transfected cells; host or cells: CHO (Chinese hamster ovary) cells, stably transfected
Experiment: cAMP functional agonist assay (LANCE TR-FRET) in CHO cells expressing cloned human β3-AR
Format: cell-based
Details: for EC50: CHO cells stably expressing cloned human β3-adrenoceptor, cAMP release, read-out: Human β3-AR Agonism EC50; for Fold drop in potency vs. 2-chloropyridine analog: EC50 of comparative example divided by EC50 of corresponding 2-chloropyridine compound; for Human β3-AR Agonist Activity (%): percent maximum activation relative to isoproterenol
Description: The ability of compounds to activate the human β3-AR receptor was measured using a CHO cell line stably expressing the cloned human β1-, β2-, and β3-adrenoceptors (β-AR). […] To quantify the amount of cAMP released following β-AR activation, the LANCE cAMP kit (Perking Elmer), a time-resolved fluorescence resonance energy transfer immunoassay, was used. Compounds were serially diluted in DMSO and an aliquot added to either 384-well or 96-well micro titer plates in assay buffer (5 mM HEPES, 0.1% BSA in Hank's Balanced Salt Solution). […] Following 30 min incubation at room temperature, the cells were lysed by the addition of LANCE detection buffer which contained a europium-labeled cAMP tracer. Fluorescence was measured following one hour incubation at room temperature using a Perking Elmer Envision plate reader, exciting at 340 nm and measuring emission at 615 nm and 665 nm. For each assay, a cAMP standard curve was included and used to convert fluorescence readings directly to cAMP amounts. The values were then normalized to isoproterenol, a known full agonist of β-AR, which was titrated in every assay and the EC50 determined using a custom in-house data analysis package. Along with EC50, the percent maximum activation relative to isoproterenol is reported.
The cAMP production is measured using a homogenous time-resolved fluorescence resonance energy transfer immunoassay (LANCE™, Perkin Elmer) according to the manufacture's instructions. Chinese hamster ovary (CHO) cells, stably transfected with the cloned β-adrenergic receptor (β1, β2 or β3) are harvested after 3 days of subculturing. Harvesting of cells is done with Enzyme-free Dissociation Media (Specialty Media). Cells are then counted and resuspended in assay buffer (Hank's Balanced salt solution supplemented with 5 mM HEPES, […]) containing a phosphodiesterase inhibitor (IBMX, 0.6 mM). The reaction is initiated by mixing 6,000 cells in 6 μL with 6 μL Alexa Fluor labeled cAMP antibody (LANCE™ kit) which is then added to an assay well containing 12 μL of compound (diluted in assay buffer to 2× final concentration). The reaction proceeds for 30 minutes at RT and is terminated by the addition of 24 ul detection buffer (LANCE™ kit). The assay plate is then incubated for 1 h at RT and time-resolved fluorescence measured on a Perkin Elmer Envision reader or equivalent. The unknown cAMP level is determined by comparing fluorescence levels to a cAMP standard curve.
The non-selective, full agonist β-adrenergic ligand isoproterenol is used at all three receptors to determine maximal stimulation. […] Data are analyzed using Microsoft Excel and Graphpad Prism or an internally developed data analysis software package. […]

T1 sequence (P13945 whole entry): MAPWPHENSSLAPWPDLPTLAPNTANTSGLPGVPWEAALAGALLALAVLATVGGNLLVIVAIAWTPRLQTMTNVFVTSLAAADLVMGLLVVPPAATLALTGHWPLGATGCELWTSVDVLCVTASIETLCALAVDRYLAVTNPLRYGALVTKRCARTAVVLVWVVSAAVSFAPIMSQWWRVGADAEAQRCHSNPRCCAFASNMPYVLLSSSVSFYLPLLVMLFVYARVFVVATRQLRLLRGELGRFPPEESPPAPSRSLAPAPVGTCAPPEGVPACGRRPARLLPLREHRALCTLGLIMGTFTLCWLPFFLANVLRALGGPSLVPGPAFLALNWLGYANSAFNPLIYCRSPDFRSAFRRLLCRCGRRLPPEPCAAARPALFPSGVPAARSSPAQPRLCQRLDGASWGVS

| Compound | EC50 [µM] | Fold drop in potency vs. 2-chloropyridine analog [fold] | Human β3-AR Agonist Activity (%) |
| --- | --- | --- | --- |
| COCc1cc(CN(C)C(=O)c2ccc(C[C@@H]3CC[C@H]([C@H](O)c4ccc(OC(F)F)cc4)N3)cc2)n[nH]1 [Example 9-E, 4-(((2S,5R)-5-((R)-(4-(difluoromethoxy)phenyl)(hydroxy)methyl)pyrrolidin-2-yl)methyl)-N-((5-(methoxymethyl)-1H-pyrazol-3-yl)methyl)-N-methylbenzamide] | 0.108 | 39.6 | 76 |
| CN(Cc1cccc(=O)[nH]1)C(=O)c1ccc(C[C@@H]2CC[C@H]([C@H](O)c3ccc(OC(F)F)cc3)N2)cc1 [Example 20-E, 4-(((2S,5R)-5-((R)-(4-(difluoromethoxy)phenyl)(hydroxy)methyl)pyrrolidin-2-yl)methyl)-N-methyl-N-((6-oxo-1,6-dihydropyridin-2-yl)methyl)benzamide] | 0.086 | 18.9 | 72 |
| CC(C)c1cc(CN(C)C(=O)c2ccc(C[C@@H]3CC[C@H]([C@H](O)c4ccc(Cl)nc4)N3)cc2)n[nH]1 [Example 7-A, 4-(((2S,5R)-5-((R)-(6-chloropyridin-3-yl)(hydroxy)methyl)pyrrolidin-2-yl)methyl)-N-((5-isopropyl-1H-pyrazol-3-yl)methyl)-N-methylbenzamide] | 0.059 | – | 95 |
| CN(C(=O)c1ccc(C[C@@H]2CC[C@H]([C@H](O)c3ccccc3)N2)cc1)C1CCc2ncccc21 (stereo partly drawn) [Example 24-B, N-(6,7-dihydro-5H-cyclopenta[b]pyridin-5-yl)-4-(((2S,5R)-5-((R)-hydroxy(phenyl)methyl)pyrrolidin-2-yl)methyl)-N-methylbenzamide] | 0.229 | 5.4 | 106 |
| CN(Cc1cccnc1F)C(=O)c1ccc(C[C@@H]2CC[C@H]([C@H](O)c3ccc(Cl)nc3)N2)cc1 [Example 26-A, 4-(((2S,5R)-5-((R)-(6-chloropyridin-3-yl)(hydroxy)methyl)pyrrolidin-2-yl)methyl)-N-((2-fluoropyridin-3-yl)methyl)-N-methylbenzamide] | 0.035 | – | 97 |
| CCOc1cc(CN(C)C(=O)c2ccc(C[C@@H]3CC[C@H]([C@H](O)c4ccccc4)N3)cc2)n[nH]1 [Example 11-B, N-((5-ethoxy-1H-pyrazol-3-yl)methyl)-4-(((2S,5R)-5-((R)-hydroxy(phenyl)methyl)pyrrolidin-2-yl)methyl)-N-methylbenzamide] | 0.026 | 4.0 | 116 |
| O=C(c1ccc(C[C@@H]2CC[C@H]([C@H](O)c3cccnc3)N2)cc1)N(CCO)Cc1cccnc1F [Example 27-H, N-((2-fluoropyridin-3-yl)methyl)-4-(((2S,5R)-5-((R)-hydroxy(pyridin-3-yl)methyl)pyrrolidin-2-yl)methyl)-N-(2-hydroxyethyl)benzamide] | 1.39 | 288.6 | 78 |
| CN(Cc1n[nH]c2c1CCCC2)C(=O)c1ccc(C[C@@H]2CC[C@H]([C@H](O)c3ccc(Cl)nc3)N2)cc1 [Example 14-A, 4-(((2S,5R)-5-((R)-(6-chloropyridin-3-yl)(hydroxy)methyl)pyrrolidin-2-yl)methyl)-N-methyl-N-((4,5,6,7-tetrahydro-1H-indazol-3-yl)methyl)benzamide] | 0.003 | – | 108 |
| Cc1nnc2ccc(CN(C)C(=O)c3ccc(C[C@@H]4CC[C@H]([C@H](O)c5ccccc5)N4)cc3)cn12 [Example 43-B, 4-(((2S,5R)-5-((R)-hydroxy(phenyl)methyl)pyrrolidin-2-yl)methyl)-N-methyl-N-((3-methyl-[1,2,4]triazolo[4,3-a]pyridin-6-yl)methyl)benzamide] | 1.62 | <0.12 | 79 |
| Cc1n[nH]c(CN(C)C(=O)c2ccc(C[C@@H]3CC[C@H]([C@H](O)c4ccccc4)N3)cc2)c1Cl [Example 17-B, N-((4-chloro-5-methyl-1H-pyrazol-3-yl)methyl)-4-(((2S,5R)-5-((R)-hydroxy(phenyl)methyl)pyrrolidin-2-yl)methyl)-N-methylbenzamide] | 0.017 | 4.5 | 112 |
| CC(C)[C@H](c1nn(C)c(=O)o1)N(C)C(=O)c1ccc(C[C@@H]2CC[C@H]([C@H](O)c3ccccc3)N2)cc1 [Example 19-B, 4-(((2S,5R)-5-((R)-hydroxy(phenyl)methyl)pyrrolidin-2-yl)methyl)-N-methyl-N—((R)-2-methyl-1-(4-methyl-5-oxo-4,5-dihydro-1,3,4-oxadiazol-2-yl)propyl)benzamide] | 0.032 | 5.8 | 115 |

Now from value to compound:

| EC50 [µM] | Fold drop in potency vs. 2-chloropyridine analog [fold] | Human β3-AR Agonist Activity (%) | Compound |
| --- | --- | --- | --- |
| 0.005 | 5.9 | 112 | Cc1[nH]nc(CN(C)C(=O)c2ccc(C[C@@H]3CC[C@H]([C@H](O)c4ccccc4)N3)cc2)c1O [Example 15-B, 4-(((2S, 5R)-5-((R)-hydroxy(phenyl)methyl)pyrrolidin-2-yl)methyl)-N-((4-hydroxy-5-methyl-1H-pyrazol-3-yl)methyl)-N-methylbenzamide] |
| 0.007 | 0.9 | 100 | CN(Cc1cncc(F)c1)C(=O)c1ccc(C[C@@H]2CC[C@H]([C@H](O)c3ccccc3)N2)cc1 [Example 38-B, N-((5-fluoropyridin-3-yl)methyl)-4-(((2S,5R)-5-((R)-hydroxy(phenyl)methyl)pyrrolidin-2-yl)methyl)-N-methylbenzamide] |
| 0.003 | – | 93 | Cc1cc(C(Cc2ccccc2)N(C)C(=O)c2ccc(C[C@@H]3CC[C@H]([C@H](O)c4ccc(Cl)nc4)N3)cc2)[nH]n1 (stereo partly drawn) [Example 6-A, 4-(((2S,5R)-5-((R)-(6-chloropyridin-3-yl)(hydroxy)methyl)pyrrolidin-2-yl)methyl)-N-methyl-N-(1-(5-methyl-1H-pyrazol-3-yl)-2-phenylethyl)benzamide] |
| 0.003 | – | 94 | CN(Cc1ccnnc1)C(=O)c1ccc(C[C@@H]2CC[C@H]([C@H](O)c3ccc(Cl)nc3)N2)cc1 [Example 42-A, 4-(((2S,5R)-5-((R)-(6-chloropyridin-3-yl)(hydroxy)methyl)pyrrolidin-2-yl)methyl)-N-methyl-N-(pyridazin-4-ylmethyl)benzamide] |
| 0.007 | – | 96 | CC(O)c1cncc(CN(C)C(=O)c2ccc(C[C@@H]3CC[C@H]([C@H](O)c4ccc(Cl)nc4)N3)cc2)c1 (stereo partly drawn) [Example 31-A, (((2S,5R)-5-((R)-(6-chloropyridin-3-yl)(hydroxy)methyl)pyrrolidin-2-yl)methyl)-N-((5-(1-hydroxyethyl)pyridin-3-yl)methyl)-N-methylbenzamide] |
| 0.001 | – | 94 | Cc1[nH]nc(CN(C)C(=O)c2ccc(C[C@@H]3CC[C@H]([C@H](O)c4ccc(Cl)nc4)N3)cc2)c1O [Example 15-A, 4-(((2S,5R)-5-((R)-(6-chloropyridin-3-yl)(hydroxy)methyl)pyrrolidin-2-yl)methyl)-N-((4-hydroxy-5-methyl-1H-pyrazol-3-yl)methyl)-N-methylbenzamide] |
| 0.004 | – | 102 | CN(Cc1cccnc1)C(=O)c1ccc(C[C@@H]2CC[C@H]([C@H](O)c3ccc(Cl)nc3)N2)cc1 [Example 21-A, 4-(((2S,5R)-5-((R)-(6-chloropyridin-3-yl)(hydroxy)methyl)pyrrolidin-2-yl)methyl)-N-methyl-N-(pyridin-3-ylmethyl)benzamide] |
